# Experimental data reported in BindingDB's records for doi:10.1158/0008-5472.CAN-07-0320 (University Hospital Basel, 2007).
# Tests used:
# [1] = target: Serine/threonine-protein kinase pim-2 (Homo sapiens, UniProt Q9P1W9); test: Kinase Inhibition Assay; settings: pH 7.5; 25 °C
# Experimental: (§1) Phosphorylation reactions were monitored using a coupled-enzyme assay in which ADP production was coupled to NADH oxidation by pyruvate kinase and lactate dehydrogenase. The assay was carried out in a buffer containing phosphoenolpyruvate, NADH, pyruvate kinase, lactate dehydrogenase, and PIM kinase. The reaction was monitored at 340 nm at 25 deg C on a Spectramax spectrophotometer (Molecular Devices) and started by addition ATP after a 10-min preincubation at 25 deg C. A recognition peptide of the PIM1 substrate p21 ([…]) was used. DMSO-dissolved inhibitors were added at the preincubation period resulting in a 2% final DMSO. Kinetic analysis was done by nonlinear regression fitting using the program KaleidaGraph (Synergy Software).
# [2] = target: Serine/threonine-protein kinase pim-1 (Homo sapiens, UniProt P11309); test: Kinase Inhibition Assay; settings: pH 7.5; 25 °C
# Experimental: as §1
# Sequence of Serine/threonine-protein kinase pim-2 (Q9P1W9 whole entry): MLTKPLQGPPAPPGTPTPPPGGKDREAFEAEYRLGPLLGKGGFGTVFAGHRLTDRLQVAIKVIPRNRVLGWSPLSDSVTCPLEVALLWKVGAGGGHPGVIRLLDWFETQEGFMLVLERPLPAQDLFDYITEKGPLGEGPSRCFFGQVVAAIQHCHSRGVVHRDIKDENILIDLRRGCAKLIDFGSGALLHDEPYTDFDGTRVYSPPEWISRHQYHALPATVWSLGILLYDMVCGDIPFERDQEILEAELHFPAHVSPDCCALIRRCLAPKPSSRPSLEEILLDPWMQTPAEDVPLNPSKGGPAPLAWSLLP
# Sequence of Serine/threonine-protein kinase pim-1 (P11309 whole entry): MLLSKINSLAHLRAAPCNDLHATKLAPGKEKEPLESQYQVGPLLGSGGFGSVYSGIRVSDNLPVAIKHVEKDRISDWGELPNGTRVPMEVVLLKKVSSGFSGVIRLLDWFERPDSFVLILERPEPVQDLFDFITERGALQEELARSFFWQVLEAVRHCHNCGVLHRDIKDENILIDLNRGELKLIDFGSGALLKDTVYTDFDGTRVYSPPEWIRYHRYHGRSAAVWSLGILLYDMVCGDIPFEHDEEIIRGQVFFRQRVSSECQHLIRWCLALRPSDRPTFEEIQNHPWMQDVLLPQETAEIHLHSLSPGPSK
IC50 [1] [nM],IC50 [2] [nM],Structure (SMILES)
1800,,"CC(=O)c1cccc(-c2cnc3ccc(NCC4CC4)nn23)c1 [1-(3-{6-[(cyclopropylmethyl)amino]imidazo[1,2-a]pyridazin-3-yl}phenyl)ethan-1-one]"
7100,50,Clc1cccc(-c2cnc3ccc(NC4CCOCC4)nn23)c1 [K00152]
2500,40,CCC(CO)Nc1ccc2ncc(-c3ccc(F)c(Cl)c3)n2n1 (stereo not given) [K00486]
